Results reported in patent US20250059171A1 (Hoffmann-La Roche Inc., priority 2021, published 2025).

Experiments:
MERS-CoV 3CLpro = MERS-CoV 3CLpro (Middle East respiratory syndrome-related coronavirus, UniProt K9N7C7); experiment: biochemical
SARS-CoV-2 3CLpro = SARS-CoV-2 3CLpro (Severe acute respiratory syndrome coronavirus 2, UniProt P0DTD1); experiment: biochemical
SARS-CoV 3CLpro = SARS-CoV 3CLpro (Severe acute respiratory syndrome coronavirus, UniProt P0C6X7); experiment: biochemical
HCoV-229E 3CLpro = HCoV-229E 3CLpro (Human coronavirus 229E, UniProt P0C6X1); experiment: HCoV-229E 3CLpro inhibition assay (FRET); format: biochemical
Chain of HCoV-229E 3CLpro (P0C6X1 2966-3267): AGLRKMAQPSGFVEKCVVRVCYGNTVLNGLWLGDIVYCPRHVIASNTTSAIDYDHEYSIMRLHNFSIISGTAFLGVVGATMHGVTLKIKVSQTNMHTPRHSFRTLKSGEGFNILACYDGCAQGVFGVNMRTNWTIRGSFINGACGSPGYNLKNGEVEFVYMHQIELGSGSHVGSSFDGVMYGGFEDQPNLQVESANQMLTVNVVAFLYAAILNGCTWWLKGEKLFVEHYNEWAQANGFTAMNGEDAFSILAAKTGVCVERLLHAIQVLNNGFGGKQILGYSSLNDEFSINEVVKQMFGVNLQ

Chain of MERS-CoV 3CLpro (K9N7C7 3248-3553): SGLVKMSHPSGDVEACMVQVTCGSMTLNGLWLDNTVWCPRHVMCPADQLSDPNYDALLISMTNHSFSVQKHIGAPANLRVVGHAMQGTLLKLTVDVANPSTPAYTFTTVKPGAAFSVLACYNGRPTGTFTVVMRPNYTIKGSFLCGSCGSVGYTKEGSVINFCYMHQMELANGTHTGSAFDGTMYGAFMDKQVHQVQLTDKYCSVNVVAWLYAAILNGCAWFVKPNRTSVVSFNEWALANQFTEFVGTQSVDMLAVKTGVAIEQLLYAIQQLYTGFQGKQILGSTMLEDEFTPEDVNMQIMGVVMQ

## CC[C@@H](C)[C@H](NC(=O)[C@@H](C)F)C(=O)N1C[C@H]2[C@@H]([C@H]1C(=O)NN(C[C@@H]1CCNC1=O)C(=O)[C@@H](F)Cl)C2(C)C [Example 123, (2R)—N-[(1S,2R)-1-[(1R,2S,5S)-2-[[[(2S)-2-chloro-2-fluoro-acetyl]-[[(3S)-2-oxopyrrolidin-3-yl]methyl]amino]carbamoyl]-6,6-dimethyl-3-azabicyclo[3.1.0]hexane-3-carbonyl]-2-methyl-butyl]-2-fluoro-propanamide]
MERS-CoV 3CLpro
  IC50: 146 nM
SARS-CoV-2 3CLpro
  IC50: 37 nM
SARS-CoV 3CLpro
  IC50: 62 nM
HCoV-229E 3CLpro
  IC50: 51 nM

## CC(C)(C)[C@H](NC(=O)C(F)F)C(=O)N1C[C@H]2[C@@H]([C@H]1C(=O)NN(C[C@@H]1CCNC1=O)C(=O)[C@H](F)Cl)C2(C)C [Example 14, N-[(1S)-1-[(1R,2S,5S)-2-[[[(2R)-2-chloro-2-fluoro-acetyl]-[[(3S)-2-oxopyrrolidin-3-yl]methyl]amino]carbamoyl]-6,6-dimethyl-3-azabicyclo[3.1.0]hexane-3-carbonyl]-2,2-dimethyl-propyl]-2,2-difluoro-acetamide]
MERS-CoV 3CLpro
  IC50: 121 nM
SARS-CoV-2 3CLpro
  IC50: 7 nM
SARS-CoV 3CLpro
  IC50: 18 nM
HCoV-229E 3CLpro
  IC50: 36 nM

## CC[C@H](C)[C@H](NC(=O)[C@@H](F)Cl)C(=O)N1C[C@H]2[C@@H]([C@H]1C(=O)NN(C[C@H]1CCCNC1=O)C(=O)[C@@H](F)Cl)C2(C)C [Example 195, (2S)-2-chloro-N-[(1S,2S)-1-[(1R,2S,5S)-2-[[[(2S)-2-chloro-2-fluoro-acetyl]-[[(3R)-2-oxo-3-piperidyl]methyl]amino]carbamoyl]-6,6-dimethyl-3-azabicyclo[3.1.0]hexane-3-carbonyl]-2-methyl-butyl]-2-fluoro-acetamide]
MERS-CoV 3CLpro
  IC50: 112 nM
SARS-CoV-2 3CLpro
  IC50: 28 nM
SARS-CoV 3CLpro
  IC50: 51 nM
HCoV-229E 3CLpro
  IC50: 29 nM

## CCC(C)[C@H](NC(=O)C1(F)CCC1)C(=O)N1C[C@@H]2CCC[C@@H]2[C@H]1C(=O)NN(C[C@@H]1CCNC1=O)C(=O)[C@H](F)Cl (stereo in doubt) [Example 125, N-[(1S,2S)-1-[(3S,3aS,6aR)-3-[[[(2R)-2-chloro-2-fluoro-acetyl]-[[(3S)-2-oxopyrrolidin-3-yl]methyl]amino]carbamoyl]-3,3a,4,5,6,6a-hexahydro-1H-cyclopenta[c]pyrrole-2-carbonyl]-2-methyl-butyl]-1-fluoro-cyclobutanecarboxamide]
MERS-CoV 3CLpro
  IC50: 114 nM
SARS-CoV-2 3CLpro
  IC50: 10 nM
SARS-CoV 3CLpro
  IC50: 12 nM
HCoV-229E 3CLpro
  IC50: 42 nM

## CCC(C)(C)[C@H](NC(=O)C(F)F)C(=O)N1C[C@@H]2CCC[C@@H]2[C@H]1C(=O)NN(C[C@@H]1CCNC1=O)C(=O)[C@H](F)Cl [Example 151, N-[(1S)-1-[(3S,3aS,6aR)-3-[[[(2R)-2-chloro-2-fluoro-acetyl]-[[(3S)-2-oxopyrrolidin-3-yl]methyl]amino]carbamoyl]-3,3a,4,5,6,6a-hexahydro-1H-cyclopenta[c]pyrrole-2-carbonyl]-2,2-dimethyl-butyl]-2,2-difluoro-acetamide]
MERS-CoV 3CLpro
  IC50: 67 nM
SARS-CoV-2 3CLpro
  IC50: 13 nM
SARS-CoV 3CLpro
  IC50: 14 nM
HCoV-229E 3CLpro
  IC50: 31 nM

## CC[C@H](C)[C@H](NC(=O)C(C)(C)F)C(=O)N1C[C@@H]2CCC[C@@H]2[C@H]1C(=O)NN(C[C@@H]1CCNC1=O)C(=O)[C@H](F)Cl [Example 42, N-[(1S,2S)-1-[(3S,3aS,6aR)-3-[[[(2R)-2-chloro-2-fluoro-acetyl]-[[(3S)-2-oxopyrrolidin-3-yl]methyl]amino]carbamoyl]-3,3a,4,5,6,6a-hexahydro-1H-cyclopenta[c]pyrrole-2-carbonyl]-2-methyl-butyl]-2-fluoro-2-methyl-propanamide]
MERS-CoV 3CLpro
  IC50: 82 nM
SARS-CoV-2 3CLpro
  IC50: 7 nM
SARS-CoV 3CLpro
  IC50: 9 nM
HCoV-229E 3CLpro
  IC50: 24 nM

## CC(C)(C)[C@H](NC(=O)C(F)(F)F)C(=O)N1C[C@H](C(F)(F)F)C[C@H]1C(=O)NN(C[C@@H]1CCNC1=O)C(=O)[C@H](F)Cl [Example 23, N-[(1S)-1-[(2S,4R)-2-[[[(2R)-2-chloro-2-fluoro-acetyl]-[[(3S)-2-oxopyrrolidin-3-yl]methyl]amino]carbamoyl]-4-(trifluoromethyl)pyrrolidine-1-carbonyl]-2,2-dimethyl-propyl]-2,2,2-trifluoro-acetamide]
MERS-CoV 3CLpro
  IC50: 65 nM
SARS-CoV-2 3CLpro
  IC50: 9 nM
SARS-CoV 3CLpro
  IC50: 11 nM
HCoV-229E 3CLpro
  IC50: 21 nM

## CC[C@@H](C)[C@H](NC(=O)C1(F)CC1)C(=O)N1C[C@H]2[C@@H]([C@H]1C(=O)NN(C[C@@H]1CCNC1=O)C(=O)[C@H](F)Cl)C2(C)C [Example 115, N-[(1S,2R)-1-[(1R,2S,5S)-2-[[[(2R)-2-chloro-2-fluoro-acetyl]-[[(3S)-2-oxopyrrolidin-3-yl]methyl]amino]carbamoyl]-6,6-dimethyl-3-azabicyclo[3.1.0]hexane-3-carbonyl]-2-methyl-butyl]-1-fluoro-cyclopropanecarboxamide]
MERS-CoV 3CLpro
  IC50: 102 nM
SARS-CoV-2 3CLpro
  IC50: 9 nM
SARS-CoV 3CLpro
  IC50: 15 nM
HCoV-229E 3CLpro
  IC50: 30 nM

## CC1(C)[C@@H]2[C@@H](C(=O)NN(C[C@@H]3CCNC3=O)C(=O)[C@H](F)Cl)N(C(=O)[C@@H](NC(=O)C3(F)CC3)C3CCC3)C[C@@H]21 [Example 156, N-[(1S)-2-[(1R,2S,5S)-2-[[[(2R)-2-chloro-2-fluoro-acetyl]-[[(3S)-2-oxopyrrolidin-3-yl]methyl]amino]carbamoyl]-6,6-dimethyl-3-azabicyclo[3.1.0]hexan-3-yl]-1-cyclobutyl-2-oxo-ethyl]-1-fluoro-cyclopropanecarboxamide]
MERS-CoV 3CLpro
  IC50: 106 nM
SARS-CoV-2 3CLpro
  IC50: 14 nM
SARS-CoV 3CLpro
  IC50: 28 nM
HCoV-229E 3CLpro
  IC50: 32 nM

## CC(C)C(=O)N[C@H](C(=O)N1C[C@H]2[C@@H]([C@H]1C(=O)NN(C[C@@H]1CCNC1=O)C(=O)[C@H](F)Cl)C2(C)C)C(C)(C)C [Example 13, N-[(1S)-1-[(1R,2S,5S)-2-[[[(2R)-2-chloro-2-fluoro-acetyl]-[[(3S)-2-oxopyrrolidin-3-yl]methyl]amino]carbamoyl]-6,6-dimethyl-3-azabicyclo[3.1.0]hexane-3-carbonyl]-2,2-dimethyl-propyl]-2-methyl-propanamide]
MERS-CoV 3CLpro
  IC50: 94 nM
SARS-CoV-2 3CLpro
  IC50: 9 nM
SARS-CoV 3CLpro
  IC50: 14 nM
HCoV-229E 3CLpro
  IC50: 24 nM

## CC[C@H](C)[C@H](NC(=O)C1(F)CC1)C(=O)N1C[C@H](C(F)(F)F)C[C@H]1C(=O)NN(C[C@@H]1CCNC1=O)C(=O)[C@@H](F)Cl [Example 161, N-[(1S,2S)-1-[(2S,4R)-2-[[[(2S)-2-chloro-2-fluoro-acetyl]-[[(3S)-2-oxopyrrolidin-3-yl]methyl]amino]carbamoyl]-4-(trifluoromethyl)pyrrolidine-1-carbonyl]-2-methyl-butyl]-1-fluoro-cyclopropanecarboxamide]
MERS-CoV 3CLpro
  IC50: 336 nM
SARS-CoV-2 3CLpro
  IC50: 16 nM
SARS-CoV 3CLpro
  IC50: 27 nM
HCoV-229E 3CLpro
  IC50: 99 nM

## CC(C)(C)[C@H](NC(=O)C(Cl)Cl)C(=O)N1C[C@@H]2CCC[C@@H]2[C@H]1C(=O)NN(C[C@@H]1CCNC1=O)C(=O)[C@H](F)Cl [Example 70, N-[(1S)-1-[(3S,3aS,6aR)-3-[[[(2R)-2-chloro-2-fluoro-acetyl]-[[(3S)-2-oxopyrrolidin-3-yl]methyl]amino]carbamoyl]-3,3a,4,5,6,6a-hexahydro-1H-cyclopenta[c]pyrrole-2-carbonyl]-2,2-dimethyl-propyl]-2,2-dichloro-acetamide]
MERS-CoV 3CLpro
  IC50: 101 nM
SARS-CoV-2 3CLpro
  IC50: 7 nM
SARS-CoV 3CLpro
  IC50: 16 nM
HCoV-229E 3CLpro
  IC50: 30 nM

## CC[C@H](C)[C@H](NC(=O)[C@@H](F)Cl)C(=O)N1C[C@H]2[C@@H]([C@H]1C(=O)NN(C[C@@H]1CCCNC1=O)C(=O)[C@@H](F)Cl)C2(C)C [Example 189, (2S)-2-chloro-N-[(1S,2S)-1-[(1R,2S,5S)-2-[[[(2S)-2-chloro-2-fluoro-acetyl]-[[(3S)-2-oxo-3-piperidyl]methyl]amino]carbamoyl]-6,6-dimethyl-3-azabicyclo[3.1.0]hexane-3-carbonyl]-2-methyl-butyl]-2-fluoro-acetamide]
MERS-CoV 3CLpro
  IC50: 50 nM
SARS-CoV-2 3CLpro
  IC50: 8 nM
SARS-CoV 3CLpro
  IC50: 10 nM
HCoV-229E 3CLpro
  IC50: 24 nM

## CCC(C)(C)[C@H](NC(=O)[C@@H](C)F)C(=O)N1C[C@H]2[C@@H]([C@H]1C(=O)NN(C[C@@H]1CCNC1=O)C(=O)[C@H](F)Cl)C2(C)C [Example 141, (2R)—N-[(1S)-1-[(1R,2S,5S)-2-[[[(2R)-2-chloro-2-fluoro-acetyl]-[[(3S)-2-oxopyrrolidin-3-yl]methyl]amino]carbamoyl]-6,6-dimethyl-3-azabicyclo[3.1.0]hexane-3-carbonyl]-2,2-dimethyl-butyl]-2-fluoro-propanamide]
MERS-CoV 3CLpro
  IC50: 117 nM
SARS-CoV-2 3CLpro
  IC50: 10 nM
SARS-CoV 3CLpro
  IC50: 15 nM
HCoV-229E 3CLpro
  IC50: 35 nM

## CC1(C)[C@@H]2[C@@H](C(=O)NN(C[C@@H]3CCNC3=O)C(=O)[C@H](F)Cl)N(C(=O)[C@@H](NC(=O)C(F)(F)F)C3CC3)C[C@@H]21 [Example 2, N-[(1S)-2-[(1R,2S,5S)-2-[[[(2R)-2-chloro-2-fluoro-acetyl]-[[(3S)-2-oxopyrrolidin-3-yl]methyl]amino]carbamoyl]-6,6-dimethyl-3-azabicyclo[3.1.0]hexan-3-yl]-1-cyclopropyl-2-oxo-ethyl]-2,2,2-trifluoro-acetamide]
MERS-CoV 3CLpro
  IC50: 177 nM
SARS-CoV-2 3CLpro
  IC50: 19 nM
SARS-CoV 3CLpro
  IC50: 30 nM
HCoV-229E 3CLpro
  IC50: 41 nM

## CCC(=O)N[C@H](C(=O)N1C[C@@H]2CCC[C@@H]2[C@H]1C(=O)NN(C[C@@H]1CCNC1=O)C(=O)[C@H](F)Cl)[C@@H](C)CC [Example 38, N-[(1S,2S)-1-[(3S,3aS,6aR)-3-[[[(2R)-2-chloro-2-fluoro-acetyl]-[[(3S)-2-oxopyrrolidin-3-yl]methyl]amino]carbamoyl]-3,3a,4,5,6,6a-hexahydro-1H-cyclopenta[c]pyrrole-2-carbonyl]-2-methyl-butyl]propanamide]
MERS-CoV 3CLpro
  IC50: 72 nM
SARS-CoV-2 3CLpro
  IC50: 8 nM
SARS-CoV 3CLpro
  IC50: 10 nM
HCoV-229E 3CLpro
  IC50: 29 nM
